Values quoted from earlier work, collected in patent US20230149410A1, “TREATMENT OF CONDITIONS ASSOCIATED WITH THYROID HORMONE” (priority 2020, published 2023).
Where two headings read alike, the source gives them in different places.

Conditions: profound hypothyroidism after birth, treated immediately after birth

SMILES: N[C@@H](Cc1cc(I)c(Oc2cc(I)c(O)c(I)c2)c(I)c1)C(=O)O [levothyroxine]
- thyroid status by thyroid hormone testing in plasma or serum (blood): rendered chemically euthyroid
- thyroid status by thyroid hormone testing in plasma or serum (blood) (listed as T4): became chemically euthyroid
